The results in this text go back to BindingDB's records for doi:10.1021/acschembio.5b00291 (Ujf-Embl-Cnrs, 2015).

What all share (assay): Isothermal Titration Calorimetry (ITC)
What all share (conditions): pH 8; 25 °C
Background: Isothermal titration calorimetry measures the heat released or taken up as one component is titrated into another.

One assay concerns the target T1, Leucine--tRNA ligase (Candida albicans (strain WO-1), UniProt C4YL05).
T1 sequence (C4YL05 whole entry): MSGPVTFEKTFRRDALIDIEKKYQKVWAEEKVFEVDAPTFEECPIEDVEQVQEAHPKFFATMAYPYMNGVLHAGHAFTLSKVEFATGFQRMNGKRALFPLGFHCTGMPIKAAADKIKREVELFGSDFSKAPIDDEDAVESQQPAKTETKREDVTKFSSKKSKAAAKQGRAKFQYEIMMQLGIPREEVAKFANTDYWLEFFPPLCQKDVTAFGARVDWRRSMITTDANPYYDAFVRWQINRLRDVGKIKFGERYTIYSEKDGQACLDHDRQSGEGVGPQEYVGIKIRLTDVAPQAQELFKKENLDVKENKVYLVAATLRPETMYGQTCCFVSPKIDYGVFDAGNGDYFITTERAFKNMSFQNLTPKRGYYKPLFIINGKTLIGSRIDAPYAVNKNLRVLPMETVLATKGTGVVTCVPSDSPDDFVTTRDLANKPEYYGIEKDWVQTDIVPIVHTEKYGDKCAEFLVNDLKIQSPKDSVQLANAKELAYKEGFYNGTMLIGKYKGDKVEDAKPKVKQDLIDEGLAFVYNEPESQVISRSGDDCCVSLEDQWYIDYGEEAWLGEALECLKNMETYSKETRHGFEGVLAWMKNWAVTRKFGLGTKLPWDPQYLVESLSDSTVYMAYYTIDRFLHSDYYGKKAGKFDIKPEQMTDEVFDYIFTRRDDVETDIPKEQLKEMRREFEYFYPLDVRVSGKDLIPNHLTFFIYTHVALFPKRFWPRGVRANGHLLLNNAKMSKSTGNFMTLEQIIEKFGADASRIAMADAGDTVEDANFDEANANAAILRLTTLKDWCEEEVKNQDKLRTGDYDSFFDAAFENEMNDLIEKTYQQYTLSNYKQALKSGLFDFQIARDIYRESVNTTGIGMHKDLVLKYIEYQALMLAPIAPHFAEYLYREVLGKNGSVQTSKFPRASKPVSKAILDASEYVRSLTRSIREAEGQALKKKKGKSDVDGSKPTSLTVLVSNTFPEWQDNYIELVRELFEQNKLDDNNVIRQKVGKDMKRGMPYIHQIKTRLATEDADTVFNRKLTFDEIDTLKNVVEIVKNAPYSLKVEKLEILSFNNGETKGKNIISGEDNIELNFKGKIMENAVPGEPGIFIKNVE
The method, then: (§1) ITC was performed using LeuRS CP1 domain wild-type, K510E mutant, or K510A mutant against AN2690-AMP at 25 °C by an ITC200 system (MicroCal, GE Healthcare). Wildtype protein and mutants were dialyzed against the titration buffer (50 mM HEPES-KOH, 30 mM KCl and 30 mM MgCl2, pH 8.0). Compound AN2690 and AMP were also prepared in the same buffer. A 60 μM protein solution was in the presence of 10 mM AMP in the calorimetric cell and titrated using 26 stepwise injections of 1.5 μL each with the compound AN2690 plus AMP. AN2690 solutions were placed in the syringe at 0.7 to 3 mM (depending on the expected affinity) along with 10 mM AMP. The heat generated after each ligand injection was measured base on the integral of the calorimetric signal. The resultant binding isotherms were analyzed by a nonlinear least-squares fit of the experimental data to a single site model using Microcal Origin 7.0 software. Experiments were duplicated and variability estimated to be 5% in the binding

The target of assay [1] is Leucine--tRNA ligase [A132I,E138V,K510A,I952T] (Candida albicans (strain WO-1), UniProt A0A1D8PS12, A132I/E138V/I952T/K510A). The method, then:
as §1

The target of assay [2] is Leucine--tRNA ligase [A132I,E138V,K510E,I952T] (Candida albicans (strain WO-1), UniProt A0A1D8PS12, A132I/E138V/I952T/K510E). The method, then:
as §1

Leucine--tRNA ligase [A132I,E138V,K510E,I952T], sequence (A0A1D8PS12 whole entry A132I/E138V/K510E/I952T): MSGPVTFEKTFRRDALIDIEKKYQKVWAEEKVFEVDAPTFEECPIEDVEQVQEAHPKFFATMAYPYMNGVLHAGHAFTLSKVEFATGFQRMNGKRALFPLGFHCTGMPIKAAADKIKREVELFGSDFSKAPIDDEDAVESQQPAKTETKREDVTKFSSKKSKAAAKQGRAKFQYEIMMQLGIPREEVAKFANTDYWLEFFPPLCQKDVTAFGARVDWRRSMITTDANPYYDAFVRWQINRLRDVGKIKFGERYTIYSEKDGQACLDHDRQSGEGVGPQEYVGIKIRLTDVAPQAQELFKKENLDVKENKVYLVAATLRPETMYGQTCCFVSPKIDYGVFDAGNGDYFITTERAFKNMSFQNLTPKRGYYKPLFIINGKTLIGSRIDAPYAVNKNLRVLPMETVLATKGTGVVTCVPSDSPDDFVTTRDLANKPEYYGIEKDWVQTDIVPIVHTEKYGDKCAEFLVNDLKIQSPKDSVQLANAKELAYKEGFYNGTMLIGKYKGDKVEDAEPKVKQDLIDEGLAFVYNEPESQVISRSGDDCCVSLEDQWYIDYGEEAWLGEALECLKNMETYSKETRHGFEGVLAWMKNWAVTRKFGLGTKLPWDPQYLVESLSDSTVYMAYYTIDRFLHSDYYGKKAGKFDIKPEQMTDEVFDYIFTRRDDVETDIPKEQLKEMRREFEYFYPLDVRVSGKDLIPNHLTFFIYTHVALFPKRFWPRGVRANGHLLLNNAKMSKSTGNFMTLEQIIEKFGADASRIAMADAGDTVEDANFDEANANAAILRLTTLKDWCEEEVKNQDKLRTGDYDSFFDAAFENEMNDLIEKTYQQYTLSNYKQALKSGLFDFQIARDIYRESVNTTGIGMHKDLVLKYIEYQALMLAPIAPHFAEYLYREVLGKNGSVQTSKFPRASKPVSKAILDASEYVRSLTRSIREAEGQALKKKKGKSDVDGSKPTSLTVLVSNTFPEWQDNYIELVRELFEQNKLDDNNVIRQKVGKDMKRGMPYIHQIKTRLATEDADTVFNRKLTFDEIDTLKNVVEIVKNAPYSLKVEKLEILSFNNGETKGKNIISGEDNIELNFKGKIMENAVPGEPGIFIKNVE
Leucine--tRNA ligase [A132I,E138V,K510A,I952T], sequence (A0A1D8PS12 whole entry A132I/E138V/K510A/I952T): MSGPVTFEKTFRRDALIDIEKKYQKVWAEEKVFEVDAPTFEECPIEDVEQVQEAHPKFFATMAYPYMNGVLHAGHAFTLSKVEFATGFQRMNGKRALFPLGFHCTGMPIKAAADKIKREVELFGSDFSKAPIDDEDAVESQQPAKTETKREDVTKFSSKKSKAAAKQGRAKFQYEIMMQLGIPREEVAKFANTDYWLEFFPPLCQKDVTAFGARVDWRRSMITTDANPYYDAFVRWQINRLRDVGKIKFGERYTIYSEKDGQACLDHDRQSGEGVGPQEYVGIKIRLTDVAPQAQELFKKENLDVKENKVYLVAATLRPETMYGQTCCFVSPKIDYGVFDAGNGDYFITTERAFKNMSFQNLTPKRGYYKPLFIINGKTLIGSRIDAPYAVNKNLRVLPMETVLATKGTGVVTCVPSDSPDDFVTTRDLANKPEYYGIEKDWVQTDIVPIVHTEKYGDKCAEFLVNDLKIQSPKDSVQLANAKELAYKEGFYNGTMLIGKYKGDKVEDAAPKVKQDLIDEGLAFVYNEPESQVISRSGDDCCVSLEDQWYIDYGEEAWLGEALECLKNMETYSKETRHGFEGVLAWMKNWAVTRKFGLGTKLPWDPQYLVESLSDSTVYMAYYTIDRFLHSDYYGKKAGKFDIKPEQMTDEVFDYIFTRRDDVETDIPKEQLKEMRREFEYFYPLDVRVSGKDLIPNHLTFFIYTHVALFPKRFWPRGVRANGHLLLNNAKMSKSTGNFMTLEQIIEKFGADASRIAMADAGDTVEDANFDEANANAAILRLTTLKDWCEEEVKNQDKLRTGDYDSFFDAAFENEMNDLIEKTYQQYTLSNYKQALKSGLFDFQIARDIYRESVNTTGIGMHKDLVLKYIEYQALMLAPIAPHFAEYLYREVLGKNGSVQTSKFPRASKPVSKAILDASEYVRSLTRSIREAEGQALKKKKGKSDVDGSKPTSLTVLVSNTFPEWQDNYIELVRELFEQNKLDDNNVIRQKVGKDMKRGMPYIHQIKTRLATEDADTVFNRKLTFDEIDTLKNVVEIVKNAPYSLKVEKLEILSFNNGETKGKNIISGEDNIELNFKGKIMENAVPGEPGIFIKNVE

Take `CC[C@H]1O[C@@H](n2cnc3c(N)ncnc32)[C@H]2O[B-]3(OCc4cc(F)ccc43)OC12` (stereo partly drawn) [AN2690-AMP]: the Kd at Leucine--tRNA ligase was 700 nM; in assay [1] it was 46 µM; in assay [2] it was 21 µM.

Usually Kd stands for the equilibrium constant for the complex coming apart. The low end stands for a tighter complex, the high end for a looser complex.
